DBAASP
Values after ≈ are worked out from the molar mass of the structure shown.

Legend:
Test in all cases: ≥ marks a high value that may be exact or a test limit, other limits are often not marked, values filed in µg/mL are converted to µM
[1] = test system: Candida tropicalis ATCC 20240
Candida krusei ATCC 6258 = test system: Candida krusei ATCC 6258
[2] = test system: Candida parapsilosis ATCC 20224
[3] = test system: Candida glabrata ATCC 90525
[4] = test system: Candida albicans ATCC 2048
Escherichia coli MG1655 = test system: Escherichia coli MG1655
[5] = test system: Candida albicans ATCC 18804
[6] = test system: Staphylococcus aureus ATCC 33592
[7] = test system: Vibrio vulnificus 1H00066
[8] = test system: Staphylococcus aureus 1D00101
[9] = test system: Micrococcus luteus 1D00051
[10] = test system: Staphylococcus epidermidis
Escherichia coli UTI89 = test system: Escherichia coli UTI89
[11] = test system: Escherichia coli K12 MG1655
[12] = test system: Salmonella enterica subsp. enterica serovar Typhimurium ATCC 14028
[13] = test system: Staphylococcus aureus ATCC 27660
[14] = test system: Pseudomonas aeruginosa ATCC 10145
[15] = test system: Klebsiella pneumoniae ATCC 700603
Escherichia coli D31 = test system: Escherichia coli D31
[16] = test system: Enterococcus faecium BCRC 15B0132
[17] = test system: Acinetobacter baumannii BCRC 14B0097
[18] = test system: Escherichia coli BCRC 13B0198
[19] = test system: Escherichia coli BCRC 13B0207
[20] = test system: Acinetobacter baumannii BCRC 14B0091
[21] = test system: Acinetobacter baumannii BCRC 14B0100
[22] = test system: Enterococcus faecium KCCM 12118
[23] = test system: Enterococcus faecium ATCC 51559
[24] = test system: Escherichia coli KCTC 1682
[25] = test system: Staphylococcus epidermidis KCTC 1917
[26] = test system: Acinetobacter baumannii KCCM 40203
[27] = test system: Acinetobacter baumannii ATCC BAA-1605
[28] = test system: Enterococcus faecalis KCCM 29212
[29] = test system: Candida albicans ATCC 90028
[30] = test system: Candida parapsilosis ATCC 22019
[31] = test system: Malassezia furfur KCTC 7744
[32] = test system: Pseudomonas aeruginosa CCARM 2180
[33] = test system: Salmonella typhimurium KCTC 1926
[34] = test system: Trichosporon beigelii KCTC 7707
[35] = test system: Enterococcus faecalis KCCM 11814
[36] = test system: Bacillus subtilis KCTC 3068
[37] = test system: Escherichia coli ATCC 25922
[38] = test system: Staphylococcus aureus ATCC 29213
[39] = test system: Salmonella typhimurium CMCC 50013

CC(C)C[C@H](NC(=O)[C@H](C)N)C(=O)N[C@@H](CCC(N)=O)C(=O)NCC(=O)N[C@@H](C)C(=O)N[C@@H](CCCCN)C(=O)N[C@@H](CCC(=O)O)C(=O)N[C@@H](CCCN=C(N)N)C(=O)N[C@@H](C)C(=O)N[C@@H](Cc1cnc[nH]1)C(=O)N[C@@H](CCC(N)=O)C(=O)N[C@@H](CCC(N)=O)C(=O)O [ALQGAKERAHQQ]
MIC [1]: ≥ 75 µM
MIC (Candida krusei ATCC 6258): ≥ 270 µM
MIC [2]: ≥ 270 µM
MIC [3]: ≥ 260 µM
MIC [4]: ≥ 280 µM

CC[C@H](C)[C@H](NC(C)=O)C(=O)N[C@@H](CCCCN)C(=O)N[C@@H](CCCN=C(N)N)C(=O)N[C@@H](CC(C)C)C(=O)N[C@@H](CC(N)=O)C(=O)N[C@@H](CO)C(=O)N[C@@H](Cc1c[nH]c2ccccc12)C(=O)N[C@@H](CC(C)C)C(=O)N[C@@H](CCCN=C(N)N)C(=O)N[C@@H](CCCCN)C(N)=O [IKRLNSWLRK]
MIC (Escherichia coli MG1655): ≥ 64 µM
MIC [5]: ≥ 128 µM
MIC [6]: ≥ 128 µM

CC[C@H](C)[C@H](NC(=O)[C@H](CCCN=C(N)N)NC(=O)[C@@H](NC(=O)[C@H](CCSC)NC(=O)[C@@H]1CCCN1C(=O)CNC(=O)[C@H](Cc1cnc[nH]1)NC(=O)[C@@H](NC(=O)[C@H](CCCCN)NC(=O)[C@H](CCCN=C(N)N)NC(=O)[C@H](CCCN=C(N)N)NC(=O)[C@H](CCCN=C(N)N)NC(=O)[C@H](CS)NC(=O)[C@@H](N)CCCCN)C(C)C)[C@@H](C)CC)C(=O)N[C@@H](CCCN=C(N)N)C(=O)N[C@@H](CCCCN)C(=O)N[C@@H](CCCCN)C(=O)O [KCRRRKVHGPMIRIRKK]
MIC [7]: ≥ 80 µM
MIC [8]: 4 µM (≈ 8.65 µg/mL)
MIC [9]: 9 µM (≈ 19.5 µg/mL)

CC[C@H](C)[C@H](NC(=O)[C@H](CCCCN)NC(=O)[C@@H](N)CCCCN)C(=O)NCC(=O)N[C@@H](CCC(N)=O)C(=O)N[C@@H](CCCCN)C(=O)N[C@H](C(=O)N[C@@H](CCCCN)C(=O)N[C@@H](CC(N)=O)C(=O)N[C@@H](Cc1ccccc1)C(=O)N[C@@H](Cc1ccccc1)C(=O)N[C@@H](CCC(N)=O)C(=O)N[C@@H](CCCCN)C(=O)N[C@@H](CC(C)C)C(=O)O)[C@@H](C)CC [KKIGQKIKNFFQKL]
MIC [10]: ≥ 50 µM
MIC (Escherichia coli UTI89): ≥ 50 µM
MIC [11]: ≥ 50 µM
MIC [12]: > 50 µM

CC[C@H](C)[C@H](NC(=O)CNC(=O)[C@H](CCCCN)NC(=O)[C@H](Cc1c[nH]c2ccccc12)NC(=O)[C@H](CC(C)C)NC(=O)[C@H](CCCCN)NC(=O)[C@H](CCCCN)NC(=O)[C@H](C)NC(=O)[C@H](CCCCN)NC(=O)[C@H](CCCCN)NC(=O)[C@H](Cc1ccccc1)NC(=O)CNC(=O)[C@H](CCCCN)NC(=O)[C@H](C)NC(=O)[C@H](Cc1ccccc1)NC(=O)[C@@H](NC(=O)[C@H](CCCCN)NC(=O)[C@@H](NC(=O)[C@H](CC(C)C)NC(=O)[C@H](CCCCN)NC(=O)[C@@H](N)CCCCN)[C@@H](C)CC)C(C)C)C(=O)NCC(=O)O [KKLIKVFAKGFKKAKKLWKGIG]
MIC [13]: 0.97 µM (≈ 2.44 µg/mL)
MIC [14]: 1.88 µM (≈ 4.73 µg/mL)
MIC [15]: 1.88 µM (≈ 4.73 µg/mL)
MIC (Escherichia coli D31): 0.94 µM (≈ 2.37 µg/mL)

CC(=O)N[C@@H](CCCCN)C(=O)N[C@@H](CCCCN)C(=O)N[C@@H](Cc1c[nH]c2ccccc12)C(=O)N[C@@H](CCCN=C(N)N)C(=O)N[C@@H](CCCCN)C(=O)N[C@@H](Cc1c[nH]c2ccccc12)C(=O)N[C@@H](CC(C)C)C(=O)N[C@@H](C)C(=O)N[C@@H](CCCCN)C(=O)N[C@@H](CCCCN)C(N)=O [KKWRKWLAKK]
MIC [16]: ≥ 46.7 µM
MIC [17]: ≥ 46.7 µM
MIC [18]: ≥ 46.7 µM
MIC [19]: ≥ 46.7 µM
MIC [20]: ≥ 46.7 µM
MIC [21]: ≥ 46.7 µM

CC[C@H](C)[C@H](NC(=O)[C@H](Cc1c[nH]c2ccccc12)NC(=O)[C@H](CC(C)C)NC(=O)[C@@H](N)CC(C)C)C(=O)N[C@@H](C)C(=O)N[C@@H](CC(C)C)C(=O)N[C@@H](CCCN=C(N)N)C(=O)N[C@@H](CCCCN)C(=O)N[C@@H](CCCCN)C(N)=O [LLWIALRKK]
MIC [22]: 7.01 µM (≈ 7.99 µg/mL)
MIC [23]: 1.75 µM (≈ 2 µg/mL)
MIC [24]: 3.51 µM (≈ 4 µg/mL)
MIC [25]: 3.51 µM (≈ 4 µg/mL)
MIC [26]: ≥ 80 µM
MIC [27]: ≥ 80 µM
MIC [28]: 7.01 µM (≈ 7.99 µg/mL)
MIC [29]: 0.614 µM (≈ 0.699 µg/mL)
MIC [30]: 0.614 µM (≈ 0.699 µg/mL)
MIC [31]: 0.614 µM (≈ 0.699 µg/mL)
MIC [32]: ≥ 80 µM
MIC [33]: 3.51 µM (≈ 4 µg/mL)
MIC [34]: 1.32 µM (≈ 1.5 µg/mL)
MIC [35]: ≥ 80 µM
MIC [36]: 3.51 µM (≈ 4 µg/mL)

CC[C@H](C)[C@H](NC(=O)[C@@H](N)CO)C(=O)N[C@@H](CO)C(=O)N[C@@H](CC(C)C)C(=O)N[C@@H](CC(C)C)C(=O)N[C@@H](Cc1ccc(O)cc1)C(=O)NCC(=O)N[C@@H](CCCN=C(N)N)C(=O)N[C@@H](CCCCN)C(=O)N[C@@H](CCCCN)C(=O)N[C@@H](CCCN=C(N)N)C(=O)N[C@@H](CCCN=C(N)N)C(=O)N[C@@H](CCC(N)=O)C(=O)N[C@@H](CCCN=C(N)N)C(=O)N[C@@H](CCCN=C(N)N)C(=O)N[C@@H](CCCN=C(N)N)C(=O)O [SISLLYGRKKRRQRRR]
MIC [37]: 10.3 µM (≈ 21.4 µg/mL)
MIC [38]: 11 µM (≈ 22.8 µg/mL)
MIC [39]: 20.8 µM (≈ 43.1 µg/mL)
MIC [36]: 5.9 µM (≈ 12.2 µg/mL)
